Laboratory results: patent US20220213126A1, “SMALL MOLECULE AUTOPHAGY INDUCERS FOR THE TREATMENT OF CANCER AND NEURODEGENERATIVE DISEASES” (John Wayne Cancer Institute, priority 2019, published 2022)
“And” between values parts separate entries of the source, which are not always exact repeats. Equal entries are not always repeated. Values belong to the compound of their own block, whether it stands above or below them.

What was measured:
[1] = Pharmacokinetics of BC-4 and BC-5 in mouse plasma and brain; assay type: in vivo; settings: Balb/c mice, single oral dose 5 mg/kg
Method: Pharmacokinetics of BC-4 and BC-5 were compared to BC-1. Pharmacokinetics were assessed in Balb/c mice administered a single oral dose of 5 mg/kg of the indicated compound (Tables 11 and 12).

[2] = Pharmacokinetics of BC-2 and BC-3 in mouse plasma and brain; assay type: in vivo, mice
Method: Pharmacokinetics were assessed in mice administered a single oral dose of 5 mg/kg of the indicated compound (Tables 9 and 10).

GBM4 = assay: GBM cell viability, Alamar blue, 72 hours; assay type: cell-based; settings: GBM4, patient-derived cell line
Method: (§1) The effect of VMY-BC-1 was tested on a panel of GBM cell lines. […] In this study 100 μM was the highest drug concentration used, with 3-fold dilution for a 10 dose response curve.

GBM8 = assay: GBM cell viability, Alamar blue, 72 hours; assay type: cell-based; settings: GBM8, patient-derived cell line
Method: as §1

GL261 = assay: GBM cell viability, Alamar blue, 72 hours; assay type: cell-based; settings: Mus musculus, GL261, established glioma cell line
Method: as §1

U251 = assay: GBM cell viability, Alamar blue, 72 hours; assay type: cell-based; settings: Homo sapiens, U-251, U251, established glioma cell line
Method: as §1

U87 = assay: GBM cell viability, Alamar blue, 72 hours; assay type: cell-based; settings: Homo sapiens, U-87 MG, U87, established glioma cell line
Method: as §1

[3] = single oral dose 5 mg/kg, 0 min
[4] = single oral dose 5 mg/kg, 30 min
[5] = single oral dose 5 mg/kg, 60 min
[6] = single oral dose 5 mg/kg, 180 min
[7] = single oral dose 5 mg/kg, 360 min
[8] = single oral dose 5 mg/kg, 900 min
[9] = single oral dose 5 mg/kg, 1440 min
[10] = Brain, single oral dose 5 mg/kg
[11] = Plasma, single oral dose 5 mg/kg

Brain level, Mean (4) ± SE ([1]; 0 min): BQL
Plasma level, Mean (4) ± SE ([1]; 0 min): BQL
Brain level, Mean (4) ± SE ([1]; 30 min): 164 ± 16 ng/g
Plasma level, Mean (4) ± SE ([1]; 30 min): 255 ± 20 ng,/ml
Brain level, Mean (4) ± SE ([1]; 60 min): 139 ± 14 ng/g
Plasma level, Mean (4) ± SE ([1]; 60 min): 163 ± 20 ng,/ml
Brain level, Mean (4) ± SE ([1]; 180 min): BQL
Plasma level, Mean (4) ± SE ([1]; 180 min): 36 ± 6 ng,/ml
Brain level, Mean (4) ± SE ([1]; 360 min): BQL
Plasma level, Mean (4) ± SE ([1]; 360 min): 22 ± 3 ng,/ml
Brain level, Mean (4) ± SE ([1]; 900 min): BQL
Plasma level, Mean (4) ± SE ([1]; 900 min): BQL
Brain level, Mean (4) ± SE ([1]; 1440 min): BQL
Plasma level, Mean (4) ± SE ([1]; 1440 min): BQL
Tmax ([1]; Brain): 30 min
T½ ([1]; Brain): 127 min
terminal elimination rate constant (lambda z) ([1]; Brain): 0.00546 min⁻¹
AUC(0-t) ([1]; Plasma): 25300 ng·min/mL
AUC(inf) ([1]; Plasma): 28300 ng·min/mL
Cmax ([1]; Plasma): 255 ng/mL
Tmax ([1]; Plasma): 30 min
T½ ([1]; Plasma): 94.5 min
terminal elimination rate constant (lambda z) ([1]; Plasma): 0.00734 min⁻¹
SMILES: CC=C(c1ccc(OC)cc1)C(CC)c1cc(OC)cc(B(O)O)c1 (racemic) [BC-4]
Concentrations in plasma vs brain [1]: higher concentrations in plasma than brain

AUC(0-inf) ([2]; mouse, in vivo, po, 5 mg/kg): 2000 ng·h/mL
AUC(inf) ([2]; mouse, in vivo, po, 5 mg/kg): 504000 ng·min/mL
Cmax ([2]; mouse, in vivo, po, 5 mg/kg): 841 ng/mL and 4140 ng/g
Tmax ([2]; mouse, in vivo, po, 5 mg/kg): 60 min
T½ ([2]; mouse, in vivo, po, 5 mg/kg): 54.8 min
concentration at 30 min ([2]; mouse, in vivo, po, 5 mg/kg): 841 ng/mL and 3420 ng/g
concentration at 60 min ([2]; mouse, in vivo, po, 5 mg/kg): 732 ng/mL and 4140 ng/g
concentration at 180 min ([2]; mouse, in vivo, po, 5 mg/kg): 281 ng/mL and 983 ng/g
concentration at 360 min ([2]; mouse, in vivo, po, 5 mg/kg): 43 ng/mL and 94 ng/g
Tmax ([2]; mouse, in vivo, po, 5 mg/kg, Tmax): 30 min
half-life ([2]; mouse, in vivo, po, 5 mg/kg, T½): 72.8 min
SMILES: CCOc1ccc(/C=C/c2cc(OC)cc(B(O)O)c2)cc1 [BC-2, (E)-(3-(4-ethoxystyryl)-5-methoxyphenyl) Boronic Acid]
Concentration in brain vs plasma ([2]; mouse, in vivo, po, 5 mg/kg): higher concentration in brain than in plasma

Brain level, Mean (4) ± SE ([1]; 0 min): BQL
Plasma level, Mean (4) ± SE ([1]; 0 min): BQL
Brain level, Mean (4) ± SE ([1]; 30 min): 142 ± 32 ng/g
Plasma level, Mean (4) ± SE ([1]; 30 min): 1599 ± 40 ng,/ml
Brain level, Mean (4) ± SE ([1]; 60 min): 205 ± 39 ng/g
Plasma level, Mean (4) ± SE ([1]; 60 min): 1524 ± 106 ng,/ml
Brain level, Mean (4) ± SE ([1]; 180 min): 105 ± 26 ng/g
Plasma level, Mean (4) ± SE ([1]; 180 min): 742 ± 91 ng,/ml
Brain level, Mean (4) ± SE ([1]; 360 min): 28 ± 6 ng/g
Plasma level, Mean (4) ± SE ([1]; 360 min): 290 ± 35 ng,/ml
Brain level, Mean (4) ± SE ([1]; 900 min): BQL
Plasma level, Mean (4) ± SE ([1]; 900 min): 49 ± 10 ng,/ml
Brain level, Mean (4) ± SE ([1]; 1440 min): BQL
Plasma level, Mean (4) ± SE ([1]; 1440 min): 15 ± 9 ng,/ml
Tmax ([1]; Brain): 60 min
T½ ([1]; Brain): 103 min
terminal elimination rate constant (lambda z) ([1]; Brain): 0.00672 min⁻¹
AUC(0-t) ([1]; Plasma): 376000 ng·min/mL
AUC(inf) ([1]; Plasma): 381000 ng·min/mL
Cmax ([1]; Plasma): 1600 ng/mL
Tmax ([1]; Plasma): 30 min
T½ ([1]; Plasma): 251 min
terminal elimination rate constant (lambda z) ([1]; Plasma): 0.00276 min⁻¹
SMILES: CCC(=C(c1ccccc1)c1ccc(OC)cc1)c1cc(OC)cc(B(O)O)c1 [BC-5]
Concentrations in plasma vs brain [1]: higher concentrations in plasma than brain

IC50 (U251): 12 µM
IC50 (U87): 40 µM
Drug level in plasma and brain, all time points ([2]; single oral dose 5 mg/kg): below quantification level
Brain level, Mean (4) ± SE [2, 3]: BQL
Plasma level, Mean (4) ± SE [2, 3]: BQL
Brain level, Mean (4) ± SE [2, 4]: BQL
Plasma level, Mean (4) ± SE [2, 4]: BQL
Brain level, Mean (4) ± SE [2, 5]: BQL
Plasma level, Mean (4) ± SE [2, 5]: BQL
Brain level, Mean (4) ± SE [2, 6]: BQL
Plasma level, Mean (4) ± SE [2, 6]: BQL
Brain level, Mean (4) ± SE [2, 7]: BQL
Plasma level, Mean (4) ± SE [2, 7]: BQL
Brain level, Mean (4) ± SE [2, 8]: BQL
Plasma level, Mean (4) ± SE [2, 8]: BQL
Brain level, Mean (4) ± SE [2, 9]: BQL
Plasma level, Mean (4) ± SE [2, 9]: BQL
SMILES: Oc1ccc(C=Cc2cc(O)cc(O)c2)cc1 [Resveratrol, resveratrol, reference compound]
IC50 (GBM4): 40.6 µM
IC50 (GBM8): 26.6 µM
IC50 (GL261): 10.6 µM

Kd (Lambda Z) [2, 10]: 0.000342 s⁻¹
Tmax [2, 10]: 30 min
T½ [2, 10]: 33.8 min
AUC(0-t) [2, 11]: 25500 ng·min/mL
AUC(inf) [2, 11]: 26300 ng·min/mL
Cmax [2, 11]: 439 ng/mL
Kd (Lambda Z) [2, 11]: 0.000358 s⁻¹
Tmax [2, 11]: 30 min
T½ [2, 11]: 32.3 min
Brain level, Mean (4) ± SE [2, 3]: BQL
Plasma level, Mean (4) ± SE [2, 3]: BQL
Brain level, Mean (4) ± SE [2, 4]: 1951 ± 323 ng/g
Plasma level, Mean (4) ± SE [2, 4]: 439 ± 67 ng/mL
Brain level, Mean (4) ± SE [2, 5]: 1233 ± 219 ng/g
Plasma level, Mean (4) ± SE [2, 5]: 217 ± 28 ng/mL
Brain level, Mean (4) ± SE [2, 6]: 95 ± 26 ng/g
Plasma level, Mean (4) ± SE [2, 6]: 17 ± 10 ng/mL
Brain level, Mean (4) ± SE [2, 7]: BQL
Plasma level, Mean (4) ± SE [2, 7]: BQL
Brain level, Mean (4) ± SE [2, 8]: BQL
Plasma level, Mean (4) ± SE [2, 8]: BQL
Brain level, Mean (4) ± SE [2, 9]: BQL
Plasma level, Mean (4) ± SE [2, 9]: BQL
SMILES: COc1cc(/C=C/c2ccc(F)cc2)cc(B(O)O)c1 [BC-3]
Concentration in brain vs plasma ([2]; single oral dose 5 mg/kg): higher concentration in brain than in plasma
